Source: patent US20040219173A1, “METHOD FOR TREATING HIV” (priority 2000, published 2004)
Where two headings read alike, the source gives them in different places.

Tests used:
[1] = cited from earlier work
[2] = Complications from use of the NaCl tablets in the test subjects; format: in vivo, human; details: Example II, 12 subjects, 250 mg tablets
Description: 12 representative persons would be treated by the inventive method, but with a 250 mg tablet of solid NaCI (except certain other ingredients also are incorporated into the tablets, for a total of 250 mg, for test subject nos. 11 and 12, as further discussed below).

For `[Cl-].[Na+]` [NaCI, sodium chloride], the saturation in water ([1]; 0°C) is listed as “about 35.7 % by weight”, the saturation in water ([1]; room temperature (72°F, 22.2°C)) is listed as “about 32.6 % by weight” and the “complications from use of the tablets” value [2] is listed as “No complications”.
